Key:
Type in all cases: cell-based
human TLR7 = target: T1, human TLR7 (Homo sapiens, UniProt Q9NYK1); test: TLR7 inhibition reporter assay (HEK-Blue SEAP); settings: HEK-Blue cells overexpressing human TLR7, stimulated with gardiquimod 7.5 μM, 22 hour incubation
T1 construct: host or cells: HEK-Blue cells
T1 sequence (Q9NYK1 27-1049): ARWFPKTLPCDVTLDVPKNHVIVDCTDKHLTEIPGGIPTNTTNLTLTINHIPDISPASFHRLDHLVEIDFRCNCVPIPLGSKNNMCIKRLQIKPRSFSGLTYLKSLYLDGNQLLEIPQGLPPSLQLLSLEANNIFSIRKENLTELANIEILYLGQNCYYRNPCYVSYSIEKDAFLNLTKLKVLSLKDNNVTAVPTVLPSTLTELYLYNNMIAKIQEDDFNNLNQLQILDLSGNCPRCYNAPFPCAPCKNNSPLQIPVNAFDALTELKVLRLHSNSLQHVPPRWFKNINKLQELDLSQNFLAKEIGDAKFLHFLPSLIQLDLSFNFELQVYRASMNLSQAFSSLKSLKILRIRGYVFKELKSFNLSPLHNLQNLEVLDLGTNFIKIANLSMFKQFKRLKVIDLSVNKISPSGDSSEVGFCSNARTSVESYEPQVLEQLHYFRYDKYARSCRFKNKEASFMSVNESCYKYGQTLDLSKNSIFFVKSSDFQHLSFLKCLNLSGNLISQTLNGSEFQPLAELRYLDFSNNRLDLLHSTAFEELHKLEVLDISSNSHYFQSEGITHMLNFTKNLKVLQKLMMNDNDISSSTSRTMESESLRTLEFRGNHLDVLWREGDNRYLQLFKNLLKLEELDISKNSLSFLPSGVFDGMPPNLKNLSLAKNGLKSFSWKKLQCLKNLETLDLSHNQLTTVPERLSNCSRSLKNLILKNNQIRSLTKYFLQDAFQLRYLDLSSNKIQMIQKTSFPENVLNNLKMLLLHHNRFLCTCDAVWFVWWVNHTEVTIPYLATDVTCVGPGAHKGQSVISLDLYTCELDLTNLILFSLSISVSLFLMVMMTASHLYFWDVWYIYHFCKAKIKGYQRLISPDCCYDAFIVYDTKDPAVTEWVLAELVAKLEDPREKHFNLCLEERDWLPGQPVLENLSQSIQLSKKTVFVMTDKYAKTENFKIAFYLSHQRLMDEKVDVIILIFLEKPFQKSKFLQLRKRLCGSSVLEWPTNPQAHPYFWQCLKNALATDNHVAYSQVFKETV
Procedure: (§1) TLR7/8/9 Inhibition Reporter Assays
(§2) HEK-Blue™-cells (Invivogen) overexpressing human TLR7, TLR8 or TLR9 receptors were used for screening inhibitors of these receptors using an inducible SEAP (secreted embryonic alkaline phosphatase) reporter gene under the control of the IFN-β minimal promoter fused to five NF-κB and AP-1-binding sites. Briefly, cells are seeded into Greiner 384 well plates (15000 cells per well for TLR7, 20,000 for TLR8 and 25,000 for TLR9) and then treated with test compounds in DMSO to yield a final dose response concentration range of 0.05 nM to 50 μM. After a 30 minute compound pre-treatment at room temperature, the cells are then stimulated with a TLR7 ligand (gardiquimod at a final concentration of 7.5 μM), TLR8 ligand (R848 at a final concentration of 15.9 μM) or TLR9 ligand (ODN2006 at a final concentration of 5 nM) to activate NF-κB and AP-1 which induce the production of SEAP. After a 22 hour incubation at 37° C., 5% CO2, SEAP levels are determined with the addition of HEK-Blue™ Detection reagent (Invivogen), a cell culture medium that allows for detection of SEAP, according to manufacturer's specifications. The percent inhibition is determined as the % reduction in the HEK-Blue signal present in wells treated with agonist plus DMSO alone compared to wells treated with a known inhibitor.

human TLR8 = target: T2, human TLR8 (Homo sapiens, UniProt Q9NR97); test: TLR8 inhibition reporter assay (HEK-Blue SEAP); settings: HEK-Blue cells overexpressing human TLR8, stimulated with R848 15.9 μM, 22 hour incubation
T2 construct: host or cells: HEK-Blue cells
T2 sequence (Q9NR97 27-1041): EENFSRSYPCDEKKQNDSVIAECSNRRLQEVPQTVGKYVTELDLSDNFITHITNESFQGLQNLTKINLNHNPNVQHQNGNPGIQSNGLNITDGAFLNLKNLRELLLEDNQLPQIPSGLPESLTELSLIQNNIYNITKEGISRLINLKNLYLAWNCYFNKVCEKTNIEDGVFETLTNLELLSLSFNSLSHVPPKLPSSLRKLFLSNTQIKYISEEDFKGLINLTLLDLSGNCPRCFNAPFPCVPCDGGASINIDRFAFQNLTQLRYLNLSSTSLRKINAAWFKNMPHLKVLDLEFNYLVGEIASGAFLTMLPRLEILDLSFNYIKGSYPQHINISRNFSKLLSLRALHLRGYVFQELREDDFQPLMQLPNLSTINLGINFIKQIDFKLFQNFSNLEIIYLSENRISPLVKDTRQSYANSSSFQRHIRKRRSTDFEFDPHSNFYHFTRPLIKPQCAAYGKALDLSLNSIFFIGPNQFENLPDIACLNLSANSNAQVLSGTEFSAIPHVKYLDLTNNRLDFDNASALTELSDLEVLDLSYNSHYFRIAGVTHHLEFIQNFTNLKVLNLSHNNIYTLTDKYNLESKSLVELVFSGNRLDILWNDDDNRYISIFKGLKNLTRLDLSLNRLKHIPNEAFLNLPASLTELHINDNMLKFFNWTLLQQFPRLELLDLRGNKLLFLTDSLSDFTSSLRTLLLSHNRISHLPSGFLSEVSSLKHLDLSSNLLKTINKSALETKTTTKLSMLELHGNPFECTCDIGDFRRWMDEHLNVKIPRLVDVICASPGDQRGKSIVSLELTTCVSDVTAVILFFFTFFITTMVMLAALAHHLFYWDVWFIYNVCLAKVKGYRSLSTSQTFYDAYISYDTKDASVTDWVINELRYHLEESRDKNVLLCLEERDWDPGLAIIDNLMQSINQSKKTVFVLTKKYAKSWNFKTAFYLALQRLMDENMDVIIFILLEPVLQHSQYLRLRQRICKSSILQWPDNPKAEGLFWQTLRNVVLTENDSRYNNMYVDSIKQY
Procedure: as §1, §2

human TLR9 = target: T3, human TLR9 (Homo sapiens, UniProt Q9NR96); test: TLR9 inhibition reporter assay (HEK-Blue SEAP); settings: HEK-Blue cells overexpressing human TLR9, stimulated with ODN2006 5 nM, 22 hour incubation
T3 construct: host or cells: HEK-Blue cells
T3 sequence (Q9NR96 26-1032): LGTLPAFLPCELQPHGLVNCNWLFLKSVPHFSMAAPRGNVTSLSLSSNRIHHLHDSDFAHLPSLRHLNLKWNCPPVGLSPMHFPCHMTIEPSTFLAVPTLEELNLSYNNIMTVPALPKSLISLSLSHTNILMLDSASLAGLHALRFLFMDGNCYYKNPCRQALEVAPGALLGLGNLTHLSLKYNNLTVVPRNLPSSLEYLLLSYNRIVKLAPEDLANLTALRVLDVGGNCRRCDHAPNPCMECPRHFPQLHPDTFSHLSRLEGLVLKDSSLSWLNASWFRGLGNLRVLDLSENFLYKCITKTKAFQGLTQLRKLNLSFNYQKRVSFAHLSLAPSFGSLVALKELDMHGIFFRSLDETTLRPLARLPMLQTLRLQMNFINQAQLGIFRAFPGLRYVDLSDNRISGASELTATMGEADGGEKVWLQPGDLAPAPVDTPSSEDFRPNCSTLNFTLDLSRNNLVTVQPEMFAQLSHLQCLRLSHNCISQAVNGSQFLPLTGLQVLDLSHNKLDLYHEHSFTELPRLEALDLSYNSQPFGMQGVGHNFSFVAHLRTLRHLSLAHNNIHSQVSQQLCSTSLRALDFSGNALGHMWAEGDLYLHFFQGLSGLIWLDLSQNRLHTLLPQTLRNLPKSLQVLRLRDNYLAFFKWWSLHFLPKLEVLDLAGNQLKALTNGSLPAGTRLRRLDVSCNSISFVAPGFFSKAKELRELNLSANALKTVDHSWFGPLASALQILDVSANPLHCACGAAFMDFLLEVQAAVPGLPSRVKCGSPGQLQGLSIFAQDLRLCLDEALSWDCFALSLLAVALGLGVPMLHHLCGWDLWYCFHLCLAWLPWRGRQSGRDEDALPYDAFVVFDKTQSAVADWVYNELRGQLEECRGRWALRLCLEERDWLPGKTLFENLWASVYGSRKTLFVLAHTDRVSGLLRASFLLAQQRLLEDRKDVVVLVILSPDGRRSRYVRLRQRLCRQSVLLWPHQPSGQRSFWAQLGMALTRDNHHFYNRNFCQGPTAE
Procedure: as §1, §2

Compound	IC50 (human TLR7) [nM]	IC50 (human TLR8) [nM]	IC50 (human TLR9) [nM]
5-methyl-6-(8-methyl-[1,2,4]triazolo[1,5-a]pyridin-6-yl)-N-(piperidin-4-yl)-1H-indazol-3-amine [Example 203]	51.7	2.1	1420
Cc1cc2c(C3CCC(N(C)C)CC3)n[nH]c2cc1-c1cc(C)c2ncnn2c1 (single isomer, unassigned) [Example 3, N,N-dimethyl-4-(5-methyl-6-(8-methyl-[1,2,4]triazolo[1,5-a]pyridin-6-yl)-1H-indazol-3-yl)cyclohexan-1-amine]	10.2	0.4	1120
Cc1cc2c(C3CCC(N(C)C)CC3)n[nH]c2cc1-c1cc(C)c2ncnn2c1 (single isomer, unassigned) [Example 4, N,N-dimethyl-4-(5-methyl-6-(8-methyl-[1,2,4]triazolo[1,5-a]pyridin-6-yl)-1H-indazol-3-yl)cyclohexan-1-amine]	19.9	0.7	2820
Cc1cc2c(C3CC(N(C)C)C3)n[nH]c2cc1-c1cc(C)c2ncnn2c1 (single isomer, unassigned) [Example 6, N,N-dimethyl-3-(5-methyl-6-(8-methyl-[1,2,4]triazolo[1,5-a]pyridin-6-yl)-1H-indazol-3-yl)cyclobutan-1-amine]	9.3	0.3	3210
Cc1cc(-c2cc3[nH]nc(C4CCC(NCC(=O)N(C)C)CC4)c3cc2C(C)C)cn2ncnc12 (single isomer, unassigned) [Example 124, 2-((4-(5-isopropyl-6-(8-methyl-[1,2,4]triazolo[1,5-a]pyridin-6-yl)-1H-indazol-3-yl)cyclohexyl)amino)-N,N-dimethylacetamide]	0.3		11000
Cc1cc(-c2cc3[nH]nc(C4CCC(N5CCC6(COC6)C5)CC4)c3cc2C(C)C)cn2ncnc12 (single isomer, unassigned) [Example 159, 6-(4-(5-isopropyl-6-(8-methyl-[1,2,4]triazolo[1,5-a]pyridin-6-yl)-1H-indazol-3-yl)cyclohexyl)-2-oxa-6-azaspiro[3.4]octane]		0.1	7430
Cc1cc(-c2cc3[nH]nc(C4CCC(N5CCC6(COC6)C5)CC4)c3cc2C(C)C)cn2ncnc12 (single isomer, unassigned) [Example 160, 6-(4-(5-isopropyl-6-(8-methyl-[1,2,4]triazolo[1,5-a]pyridin-6-yl)-1H-indazol-3-yl)cyclohexyl)-2-oxa-6-azaspiro[3.4]octane]		0.4	7300
Cc1cc(-c2cc3[nH]nc(C4CCC(N5CCC(C)(O)C5)CC4)c3cc2C(C)C)cn2ncnc12 (single isomer, unassigned) [Example 165, 1-(4-(5-isopropyl-6-(8-methyl-[1,2,4]triazolo[1,5-a]pyridin-6-yl)-1H-indazol-3-yl)cyclohexyl)-3-methylpyrrolidin-3-ol]	0.5		13300
Cc1cc2cn[nH]c2cc1-c1cc(C)c2ncnn2c1 [Example 63, 8-methyl-6-(5-methyl-1H-indazol-6-yl)-[1,2,4]triazolo[1,5-a]pyridine]	562	32.4	
CCc1cc2c(C3CCN(C4COC4)CC3)n[nH]c2cc1-c1cc(C)c2ncnn2c1 [Example 89, 6-(5-ethyl-3-(1-(oxetan-3-yl)piperidin-4-yl)-1H-indazol-6-yl)-8-methyl-[1,2,4]triazolo[1,5-a]pyridine]	8.3	0.7	
Cc1cc(-c2cc3[nH]nc(C4CCC(N(C)C)CC4)c3cc2C(C)C)cn2ncnc12 (stereo not shown) [Example 114, 4-(5-isopropyl-6-(8-methyl-[1,2,4]triazolo[1,5-a]pyridin-6-yl)-1H-indazol-3-yl)-N,N-dimethylcyclohexan-1-amine]	0.2		6670
Cc1cc(-c2cc3[nH]nc(C4CCN(CCC#N)CC4)c3cc2C(C)C)cn2ncnc12 [Example 121, 3-(4-(5-isopropyl-6-(8-methyl-[1,2,4]triazolo[1,5-a]pyridin-6-yl)-1H-indazol-3-yl)piperidin-1-yl)propanenitrile]	1.9	0.1	
